Experimental data as given in BigSolDB 2.1.

COc1ccc(C=O)cc1O
solubility (mole fraction)
Details | in ethanol | in ethyl acetate | in formic acid | in isobutanol | in isobutyl acetate | in isopropanol | in methanol | in methyl acetate | in n-butanol | in n-propanol
278.15 K | 0.0125 | 0.0203 | 0.0432 | 0.0086 | 0.015 | 0.0072 | 0.0156 | 0.0382 | 0.012 | 0.0186
283.15 K | 0.0153 | 0.0246 | 0.0486 | 0.0098 | 0.0165 | 0.0092 | 0.0188 | 0.0425 | 0.0149 | 0.0209
288.15 K | 0.0184 | 0.029 | 0.0571 | 0.0161 | 0.0184 | 0.0118 | 0.0231 | 0.0536 | 0.017 | 0.0242
293.15 K | 0.0227 | 0.0342 | 0.068 | 0.0192 | 0.0216 | 0.0149 | 0.0291 | 0.0633 | 0.0219 | 0.0284
298.15 K | 0.0279 | 0.0401 | 0.0832 | 0.0223 | 0.025 | 0.0186 | 0.0362 | 0.074 | 0.0253 | 0.0331
303.15 K | 0.0338 | 0.0478 | 0.101 | 0.0271 | 0.0305 | 0.0259 | 0.0445 | 0.0866 | 0.0352 | 0.04
308.15 K | 0.0429 | 0.0559 | 0.115 | 0.0338 | 0.034 | 0.0296 | 0.059 | 0.104 | 0.0445 | 0.0455
313.15 K | 0.0547 | 0.0655 | 0.137 | 0.042 | 0.0408 | 0.0386 | 0.0836 | 0.121 | 0.0542 | 0.0582
318.15 K | 0.0695 | 0.0806 | 0.165 | 0.0499 | 0.0509 | 0.0576 | 0.134 | 0.147 | 0.0641 | 0.0751
